Measured values taken from US8352031B2, “Protein activity modification” (Impulse Dynamics NV, priority 2004, dated 2013).
Where “and” joins values, the source holds several entries; their conditions need not be identical. Identical values can stand only once.

Key:
[1] = system: dogs with intracoronary microembolization-induced chronic HF; assay: 3 months therapy with beta-blocker alone, beta-blocker + CCM or no therapy: LV EDV, ESV, EF; format: in vivo, dog
Description: In a set of experiments, dogs with intracoronary microembolization-induced chronic HF (LV EF 30%-40%) were randomized to 3 months therapy with either BB (beta-blockers) alone (extended release metoprolol succinate, 100 mg once daily), extended release metoprolol succinate (100 mg, once daily) combined with CCM therapy, or to no therapy at all (Control). LV end-diastolic volume (EDV), end-systolic volume (ESV) and EF were measured before randomization (PRE) and after 3 months of therapy (POST). To determine “treatment effect”, the change A between PRE and POST therapy for each group was compared among the 3 study groups.

platelet aggregation = settings: advertised; cited from earlier work
phospholamban serine-16 = assay: Phosphorylation of PLB at serine-16 in failed LV tissue homogenate with/without PK inhibitor and CCM signal (Western blot); format: biochemical, dog; settings: for P-PLB serine-16: single samples
Description: (§1) The tissue homogenate was prepared in the following manner. […] The homogenate was then filtered through 4 layers of cheese cloth. The resulting homogenate was stored in ice and its protein concentration was determined by the Lowry method.
(§2) The CCM signals were delivered to the homogenate as follows. The homogenate was diluted 2 fold in homogenate buffer and subsequently aliquotted 3 ml each in assay tubes. Assay tubes were divided into 2 sets (Set A and Set B), each subset consisting of […]. CCM signals were delivered for 10″, 30″, 1′, 5′, 30′, and 60′ in one of the sets, while the other set served as time control. The reaction was stopped by adding concentrated SDS. Protein assay on all the samples were performed by Lowry method.
(§3) Additional experiments of tissue homogenate were carried out in the presence and absence of protein kinese inhibitors. The homogenate was the same as above, from dogs with heart failure. […] CAS 62996-74-1.

[2] = system: human malignant glioma cell lines; settings: advertised; cited from earlier work
normal cells = settings: advertised; cited from earlier work
[3] = system: phospholamban threonin-17; assay: Phosphorylation of PLB at threonine-17 in failed LV tissue homogenate with/without PK inhibitor and CCM signal (Western blot); format: biochemical, dog; settings: for P-PLB threonin-17: single samples; for P-PLB threonin-17, Av: average
Description: as §1, §2, §3
The following tables summarize the experimental results for theronin-17: […]

[4] = Control + PK Inhibitor, no CCM, 10 sec
[5] = Control + PK Inhibitor, no CCM, 20 sec
[6] = Control + PK Inhibitor, no CCM, 30 sec
[7] = PK Inhibitor + CCM delivered for 60 sec

In the case of COCCc1ccc(OCC(O)CNC(C)C)cc1 (stereo not drawn) [BB, metoprolol succinate], the “LV EDV” value ([1]; BB alone) is reported as “prevented the increase in EDV”, the “LV EF” value ([1]; BB alone) is reported as “significantly increased EF” and the “LV ESV” value ([1]; BB alone) is reported as “significantly reduced ESV”. The “LV EDV” value ([1]; BB combined with CCM) was “prevented the increase in EDV”, the “LV EF” value ([1]; BB combined with CCM) was “significantly increased EF” and the “LV ESV” value ([1]; BB combined with CCM) was “significantly reduced ESV”. The “Treatment effect (Δ) LV EF, PRE to POST” value ([1]; BB combined with CCM therapy) was 12±1%.

In the case of CN[C@@H]1C[C@H]2O[C@@](C)([C@@H]1OC)n1c3ccccc3c3c4c(c5c6ccccc6n2c5c31)C(=O)NC4 [STAUROSPORIN], the “platelet aggregation induced by collagen or ADP” value (platelet aggregation) is given as “inhibits platelet aggregation”, the “P-PLB serine-16” value (phospholamban serine-16; [4]) is given as 8.0 and 9.0 and the “P-PLB serine-16” value (phospholamban serine-16; [5]) is given as 12.2 and 14.0. For the same compound, the “P-PLB serine-16, Av” value (phospholamban serine-16; Control + PK Inhibitor, no CCM, 30 sec, average) was 9.4, the “P-PLB serine-16” value (phospholamban serine-16; [6]) was 6.8 and 9.7 and the “response of serine-16 phosphorylation to CCM in presence of kinese inhibitor” value (phospholamban serine-16; HF dog tissue homogenate) was “responded close to usual”. For the same compound, the “P-PLB serine-16” value (phospholamban serine-16; PK Inhibitor + CCM delivered for 30 sec) was 14.3 and 13.0, the “P-PLB serine-16” value (phospholamban serine-16; [7]) was 22.7 and the apoptosis [2] was “Induces apoptosis”. The cell cycle arrest (normal cells) was “Arrests normal cells at the G1 checkpoint”, the “P-PLB threonin-17” value [3, 4] was 8.9 and 9.5 and the “P-PLB threonin-17, Av” value [3, 5] was 9.0. For the same compound, the “P-PLB threonin-17” value [3, 6] was 8.2, the “response of threonin-17 phosphorylation to CCM in presence of kinese inhibitor” value ([3]; HF dog tissue homogenate) was “reduced and delayed response” and the “P-PLB threonin-17” value ([3]; PK Inhibitor + CCM delivered for 10 sec) was 14.6 and 9.9 and 8.7. The “P-PLB threonin-17” value ([3]; PK Inhibitor + CCM delivered for 20 sec) was 8.3 and 15.0 and the “P-PLB threonin-17, Av” value [3, 7] was 15.0.
